The results in this text go back to patent US7232829B2, “Therapeutic compounds and methods” (Regents of the University of Minnesota, priority 2001, dated 2007).

Where two headings read alike, the source gives them in different places.

Broadly, the Ki is the dissociation constant of the complex between target and ligand, obtained from inhibition or displacement.

One assay addresses T1, kappa opioid receptor (Cavia porcellus, UniProt P41144).
T1 construct: tested on the electrically stimulated guinea-pig ileal longitudinal muscle (GPI); from tissue; host or cells: guinea-pig ileal longitudinal muscle
Kind of assay: Antagonism of ethylketazocine (EK) in the electrically stimulated guinea-pig ileal longitudinal muscle (GPI) preparation. The assay is classed as cell-based. The conditions noted are these: for EK (κ) IC50 ratio: GPI, antagonist tested at 100 nM, mean (n). On the procedure: (§1) Smooth Muscle Preparations. […] All of the compounds were tested on the electrically stimulated guinea-pig ileal longitudinal muscle (GPI), see Rang, H. P. Stimulant Actions of Volatile Anaesthetics on Smooth Muscle. Br. J. Pharmacol. 1964, 22, 356–365, and the mouse vas-deferens (MVD), see Henderson, G.; Hughes, J.; Kosterlitz, H. W. A New Example of a Morphine-Sensitive Neuroeffector Junction: Adrenergic Transmission in the Mouse vas Deferens. Br. J. Pharmacol. 1972, 46, 764–766, preparations for their agonist and antagonist activities as previously described, see (a) Portoghese, P. S.; Lipkowski, A. W.; Takemori, A. E. Binaltorphimine and Nor-binaltorphimine, Potent and Selective Kappa-Opioid Receptor Antagonists. Life Sci. 1987, 40, 1287–1292. (b) Portoghese, P. S.; Takemori, A. E. TENA. A Selective Kappa Opioid Receptor Antagonist. Life Sci. 1985, 36, 801–805. […] Morphine (M), (−)-ethylketazocine (EK), and [D-Ala^2,D-Leu^5]enkephalin (DADLE) were employed as mu, kappa and delta selective agonists, respectively. Morphine and EK were used in the GPI, and DADLE was employed in the MVD studies. Concentration-response curves were obtained in the absence (control) and presence of the antagonist in the same preparation. Antagonist potency is expressed as an IC50 ratio, that is the IC50 of the agonist in the presence of antagonist divided by the control IC50 of the agonist in the same preparation, and as a Ke value derived from the relationship, Ke=[antagonist]/[…].

In a further assay the test system is mu opioid receptor. Kind of assay: Antagonism of morphine (M) in the electrically stimulated guinea-pig ileal longitudinal muscle (GPI) preparation. It counts as cell-based. The conditions noted are these: for M (μ) Ke: GPI preparation, agonist morphine, Ke derived from IC50 ratio; for M (μ) IC50 ratio: GPI, antagonist tested at 100 nM, mean ± SEM (n); for mu opioid receptor antagonist activity (in words): smooth muscle preparations. On the procedure: as §1

For a further assay, the target named is T2, rat mu-opioid receptor (Rattus norvegicus, UniProt P33535).
T2 construct: expressed in transfected cells; host or cells: HEK-293 (transient, calcium phosphate)
T2 sequence (P33535 whole entry): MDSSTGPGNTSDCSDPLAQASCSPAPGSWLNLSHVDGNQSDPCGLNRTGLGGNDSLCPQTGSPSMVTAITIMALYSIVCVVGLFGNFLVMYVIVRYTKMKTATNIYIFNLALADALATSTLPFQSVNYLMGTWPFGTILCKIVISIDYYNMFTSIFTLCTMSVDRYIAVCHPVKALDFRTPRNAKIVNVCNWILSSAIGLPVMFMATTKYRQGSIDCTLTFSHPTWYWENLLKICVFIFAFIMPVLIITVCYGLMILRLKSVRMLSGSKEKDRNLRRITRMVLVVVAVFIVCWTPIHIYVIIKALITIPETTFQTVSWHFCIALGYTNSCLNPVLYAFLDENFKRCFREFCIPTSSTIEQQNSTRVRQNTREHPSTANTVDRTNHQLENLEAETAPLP
Kind of assay: [3H]diprenorphine binding on transiently transfected HEK-293 cells, mu. The conditions noted are these: for Ki: [3H]diprenorphine, HEK-293 cells, rat mu receptor, read-out: Ki μ. On the procedure: (§2) Receptor Binding. HEK-293 in DMEM (Gibco, BRL) supplemented with 10% Bovine Calf Serum (Hyclone) and 1% penicillin/streptomycin (Gibco, BRL) were maintained at 37° C. and in 5% CO2. Cells were seeded at 16% for 24 hours prior to transfection. Fresh media was added 2 hours prior to transfection. Cells were transfected with plasmid DNA (20 μg/100 mm plate) of either wild type or mutant receptor cDNA using the calcium phosphate precipitation method, see Chen, C.; Okayama, H. High Efficiency Transformation of Mammalian Cells by Plasmid DNA. Mol. Cell. Bio. 1987, 7, 2745–2752. Media was changed 5 hours after transfection. Transfected cells were harvested 48–72 hours after transfection for binding studies.
(§3) Sixty to 72 hours after transfection, HEK cells were washed three times with 25 mM HEPES buffer (pH 7.4) and were resuspended with 8–12 mL of 25 mM HEPES/100 mm plate. Saturation binding assays were performed in triplicate. Nonselective binding was determined using 10 μM naltrexone. Assays were incubated at room temperature for 90 minutes in a total binding volume of 0.5 mL and were terminated by filtration through a Whatman GF/B filter that had been presoaked in 0.25% poly(ethyleneimine) immediately prior to filtration. Filters were washed three times with 4 mL of ice-cold 25 mM HEPES buffer, and scintillation counting was performed with a Beckman 3801 LS Scintillation Counter. Protein concentrations were determined by the method of Bradford, see Bradford, M. M. A Rapid and Selective Method for the Quantitation of Microgram Quantities of Protein utilizing the Principle of Protein-dye Binding. Anal. Biochem. 1976, 72, 248–254. Raw binding data was analyzed with RADLIG and LIGAND (G. A. McPherson, Biosoft, Cambridge, UK). Inhibition constants (Ki) were determined from IC50 values with the Cheng-Prusoff equation, see Cheng, Y. C.; Prusoff, W. H.; Relationship between the inhibition Constant (Ki) and the concentration of inhibitor which causes 50 per cent inhibition (I50) of an enzymatic reaction. Biochem. Pharmacol. 1973, 22, 3099–3108.
(§4) As summarized in Table 2, receptor binding was determined in triplicate using [^3H]diprenorphine on HEK-293 cells that were transiently transfected with plasmids encoding rat kappa-, rat mu-, or mouse delta-opioid receptors.

Assay [1] deals with T3, mouse delta-opioid receptor (Mus musculus, UniProt P32300).
T3 construct: expressed in transfected cells; host or cells: HEK-293 (transient, calcium phosphate)
T3 sequence (P32300 whole entry): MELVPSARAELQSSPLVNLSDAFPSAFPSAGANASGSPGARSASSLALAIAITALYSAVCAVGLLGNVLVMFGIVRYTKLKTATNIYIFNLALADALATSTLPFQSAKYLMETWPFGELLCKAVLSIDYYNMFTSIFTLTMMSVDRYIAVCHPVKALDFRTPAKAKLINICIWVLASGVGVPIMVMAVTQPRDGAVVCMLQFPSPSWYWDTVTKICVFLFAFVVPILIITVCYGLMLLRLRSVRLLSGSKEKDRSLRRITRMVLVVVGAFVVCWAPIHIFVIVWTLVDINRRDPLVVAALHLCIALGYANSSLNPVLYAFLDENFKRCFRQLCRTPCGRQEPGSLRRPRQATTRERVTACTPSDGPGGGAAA
Kind of assay: [3H]diprenorphine binding on transiently transfected HEK-293 cells, delta. Particulars: for Ki: [3H]diprenorphine, HEK-293 cells, mouse delta receptor, read-out: Ki δ; for binding to delta receptor (in words): cloned receptors, HEK-293. On the procedure:
as §2, §3
As summarized in Table 2, receptor binding was determined in triplicate using [^3H]diprenorphine on HEK-293 cells that were transiently transfected with plasmids encoding rat kappa-, rat mu-, or mouse delta-opioid receptors. […] The results are consistent with the kappa agonist selectivity of compound 4b observed in the GPI. […] Binding to mu receptors was uniformly low for all regioisomers.

Assay [2] concerns the target T4, rat kappa-opioid receptor (Rattus norvegicus, UniProt P34975).
T4 construct: expressed in transfected cells; host or cells: HEK-293 (transient, calcium phosphate)
Briefly: [3H]diprenorphine binding on transiently transfected HEK-293 cells, kappa. The conditions noted are these: for Ki: [3H]diprenorphine, HEK-293 cells, rat kappa receptor, read-out: Ki κ. On the procedure: as §2, §3, §4

The target in a further assay is T5, delta opioid receptor (Mus musculus, UniProt P32300).
T5 construct: and the mouse vas-deferens (MVD); from tissue; host or cells: mouse vas deferens
T5 sequence (P32300 whole entry): as above
Briefly: Antagonism of DADLE in the mouse vas-deferens (MVD) preparation. The assay is classed as cell-based. Particulars: for DADLE (δ) IC50 ratio: MVD, antagonist tested at 100 nM, mean ± SEM (n); for delta opioid receptor antagonist activity (in words): smooth muscle preparations. On the procedure:
as §1

The subject of the next assay is mouse vas-deferens (MVD). Briefly: Agonist activity in the MVD assay. The assay is classed as cell-based. Particulars: at 1 μM. On the procedure:
as §1, with “Concentration-response curves were obtained in the absence (control) and presence of the antagonist in the same preparation.” left out

The test system of assay [3] is guinea-pig ileal longitudinal muscle (GPI). Briefly: Agonist activity in the GPI assay (concentration-response compared to morphine, reversal by antagonists). The assay is classed as cell-based. On the procedure: as §1

T1 sequence (P41144 whole entry): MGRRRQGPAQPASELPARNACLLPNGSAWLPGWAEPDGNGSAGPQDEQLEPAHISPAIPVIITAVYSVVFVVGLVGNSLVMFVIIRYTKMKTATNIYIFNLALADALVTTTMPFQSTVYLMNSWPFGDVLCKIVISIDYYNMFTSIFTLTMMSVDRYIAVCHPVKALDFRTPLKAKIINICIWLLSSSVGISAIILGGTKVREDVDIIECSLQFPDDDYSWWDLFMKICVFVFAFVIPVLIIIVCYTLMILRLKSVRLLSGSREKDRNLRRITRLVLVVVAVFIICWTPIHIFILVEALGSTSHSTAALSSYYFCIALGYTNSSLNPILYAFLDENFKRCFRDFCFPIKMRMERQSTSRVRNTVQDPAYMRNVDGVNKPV
T4 sequence (P34975 whole entry): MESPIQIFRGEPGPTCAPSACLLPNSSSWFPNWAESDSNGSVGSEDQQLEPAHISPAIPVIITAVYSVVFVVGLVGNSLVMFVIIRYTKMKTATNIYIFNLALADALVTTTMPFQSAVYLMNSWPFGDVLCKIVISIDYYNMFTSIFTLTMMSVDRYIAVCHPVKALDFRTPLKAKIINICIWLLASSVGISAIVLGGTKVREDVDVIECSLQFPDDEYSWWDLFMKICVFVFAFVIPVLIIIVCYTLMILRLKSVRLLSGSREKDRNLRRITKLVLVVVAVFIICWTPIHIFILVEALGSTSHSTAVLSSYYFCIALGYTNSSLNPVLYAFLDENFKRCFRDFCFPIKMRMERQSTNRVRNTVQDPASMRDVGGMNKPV

For the molecule `Oc1ccc2c3c1O[C@H]1c4[nH]c5c(c4C[C@@]4(O)[C@@H](C2)N(CC2CC2)CC[C@]314)C[C@@]1(O)[C@H]2Cc3ccc(O)c4c3[C@@]1(CCN2CC1CC1)[C@H]5O4` [Compound 1, Norbinaltorphimine, reference compound], the Kb at kappa opioid receptor (GPI preparation, agonist ethylketazocine, Ke derived from IC50 ratio, read-out: EK (κ) Ke) turned out to be 0.00041 µM. For the same molecule, the “M (μ) Ke” value with mu opioid receptor is listed as 12.5 nM.

Consider `N=C(N)Nc1ccc2[nH]c3c(c2c1)C[C@@]1(O)[C@H]2Cc4ccc(O)c5c4[C@@]1(CCN2CC1CC1)[C@H]3O5` [Compound 3, 5′-Guanidino-17-(cyclopropylmethyl)-6,7-didehydro-4,5α-epoxy-3,14-hydroxyindolo-[2′,3′:6,7]morphinian, reference compound], for which, at kappa opioid receptor, the Kb worked out at 0.00016 µM. Moreover, at kappa opioid receptor (smooth muscle preparations), the “kappa antagonist potency relative to norBNI 1” value is “approximately four-fold”. Moreover, the “kappa opioid receptor antagonist activity (in words)” value at kappa opioid receptor (smooth muscle preparations) is “highly potent and selective kappa opioid receptor antagonist”. The Ki on rat mu-opioid receptor came to 0.0997 ± 0.0087 µM; in assay [1], 0.0248 ± 0.0113 µM; in assay [2] it was 0.00014 ± 3e-05 µM. In addition, the “affinity for the kappa receptor relative to mu and delta receptors” value in assay [2] (cloned receptors, HEK-293) was “greater than two orders of magnitude”.

Turning to `N=C(N)Nc1cccc2[nH]c3c(c12)C[C@@]1(O)[C@H]2Cc4ccc(O)c5c4[C@@]1(CCN2CC1CC1)[C@H]3O5` [Compound 4a, 4′-Guanidino-17-(cyclopropylmethyl)-6,7-didehydro-4,5α-epoxy-3,14-hydroxyindolo-[2′,3′:6,7]morphinian], on kappa opioid receptor, the Kb was found to be 0.08 µM and the “EK (κ) IC50 ratio” value is listed as 2.3 (2). Besides, at kappa opioid receptor (smooth muscle preparations), the “kappa opioid receptor antagonist activity (in words)” value was “virtually inactive”. Further, the “binding to mu receptor (in words)” value at rat mu-opioid receptor (cloned receptors, HEK-293) is reported as “eliminated binding”. Also, the “binding to delta receptor (in words)” value in assay [1] is “eliminated binding”. In the assay on mu opioid receptor, the “M (μ) IC50 ratio” value is 0.34 (2) and the “mu opioid receptor antagonist activity (in words)” value was “virtually inactive”. Further, at delta opioid receptor, the Kb worked out at 0.263 µM, the “DADLE (δ) IC50 ratio” value is reported as 1.4 (2) and the “delta opioid receptor antagonist activity (in words)” value is “virtually inactive”. In addition, the “binding to kappa receptor (in words)” value in assay [2] (cloned receptors, HEK-293) is on record as “eliminated binding”.

On to `N=C(N)Nc1ccc2c3c([nH]c2c1)[C@@H]1Oc2c(O)ccc4c2[C@@]12CCN(CC1CC1)[C@H](C4)[C@]2(O)C3` [Compound 4b, 6′-Guanidino-17-(cyclopropylmethyl)-6,7-didehydro-4,5α-epoxy-3,14-hydroxyindolo-[2′,3′:6,7]morphinian], for which the values for the Ki (on rat mu-opioid receptor; in assay [1]; in assay [2]) were 0.0818 ± 0.0207 µM, 0.0203 ± 0.0067 µM and 0.00115 ± 0.00039 µM, respectively. For the same molecule, the “agonist activity in MVD assay” value in the assay on mouse vas-deferens (MVD) is “inactive as an agonist”. The “agonist potency relative to that of morphine” value in assay [3] (GPI assay, FIG. 5) was found to be 51 fold. Also, in assay [3] (GPI assay, with MVD results), the “agonist activity and selectivity (in words)” value is “kappa-selective agonist”. In addition, in assay [3] (GPI, naltrexone 500 nM), the “reversal of the agonist effect by naltrexone” value was “only partially reversed”. Further, the “reversal of the agonist effect by norBNI” value in assay [3] (GPI, norBNI 20 nM) is given as “completely reversed”. In addition, the “affinity for kappa receptors relative to GNTI” value in assay [2] (cloned receptors, HEK-293) is given as “one-tenth”. For the same molecule, in assay [2] (cloned receptors, HEK-293), the “binding to kappa receptor (in words)” value is reported as “kappa-selective”.

Turning to `N=C(N)Nc1cccc2c3c([nH]c12)[C@@H]1Oc2c(O)ccc4c2[C@@]12CCN(CC1CC1)[C@H](C4)[C@]2(O)C3` [Compound 4c, 7′-Guanidino-17-(cyclopropylmethyl)-6,7-didehydro-4,5α-epoxy-3,14-hydroxyindolo-[2′,3′:6,7]morphinian], at kappa opioid receptor, the Kb is 0.1 µM and the “EK (κ) IC50 ratio” value is recorded as 2.0 (2). In addition, the “kappa opioid receptor antagonist activity (in words)” value at kappa opioid receptor (smooth muscle preparations) is “inactive”. For the same molecule, the inhibitory constant (Ki) at rat mu-opioid receptor was found to be 0.181 ± 0.02 µM. In assay [1], the Ki came to 0.00275 ± 0.00048 µM and the “binding to delta receptor (in words)” value is given as “delta selectivity”. In the assay with mu opioid receptor, the “M (μ) Ke” value was determined as 238 nM, the “M (μ) IC50 ratio” value is reported as 1.4 ± 0.9 (3) and the “mu opioid receptor antagonist activity (in words)” value was “inactive”. Besides, at delta opioid receptor, the Kb is 0.00096 µM, the “DADLE (δ) IC50 ratio” value is recorded as 105 ± 30 (4) and the “delta opioid receptor antagonist activity (in words)” value was “potent delta opioid receptor antagonist”. Besides, the Ki in assay [2] came out at 0.0691 ± 0.025 µM.
